Results: patent US11053204B2, “Pyrimidinyloxy benzene derivatives as herbicides” (FMC Corporation, priority 2015, dated 2021)

Key:
Type in all cases: in vivo
kochia (Kochia scoparia) [1] = test: Test A preemergence, visual injury rating; conditions: Bassia scoparia, pre-emergence, 240 h, 0 to 100 scale (0 no effect, 100 complete control), read-out: Kochia plant response rating
Method in brief: (§1)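 Pre- and postemergence greenhouse screen. Soil: loam + sand. Spray carrier: solvent mixture, non-phytotoxic, with surfactant. Post timing at 1–2 leaves, height 2–10 cm. Readout: visual injury on a 0–100 scale roughly 10 days after application, untreated plants as reference.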

[2] = test system: barnyardgrass (Echinochloa crus-galli); test: Test A preemergence, visual injury rating; conditions: Echinochloa crus-galli, pre-emergence, 240 h, 0 to 100 scale (0 no effect, 100 complete control), read-out: Barnyardgrass plant response rating
Method in brief: as §1

[3] = test system: pigweed (Amaranthus retroflexus); test: Test A preemergence, visual injury rating; conditions: Amaranthus retroflexus, pre-emergence, 240 h, 0 to 100 scale (0 no effect, 100 complete control), read-out: Pigweed plant response rating
Method in brief: as §1

[4] = test system: Italian ryegrass (Lolium multiflorum); test: Test A preemergence, visual injury rating; conditions: Lolium multiflorum, pre-emergence, 240 h, 0 to 100 scale (0 no effect, 100 complete control), read-out: Ryegrass, Italian plant response rating
Method in brief: as §1

[5] = test system: giant foxtail (Setaria faberii); test: Test A preemergence, visual injury rating; conditions: Setaria faberi, pre-emergence, 240 h, 0 to 100 scale (0 no effect, 100 complete control), read-out: Foxtail, Giant plant response rating
Method in brief: as §1

[6] = test system: ragweed (common ragweed, Ambrosia elatior); test: Test A preemergence, visual injury rating; conditions: Ambrosia artemisiifolia, pre-emergence, 240 h, 0 to 100 scale (0 no effect, 100 complete control), read-out: Ragweed plant response rating
Method in brief: as §1

[7] = test system: ducksalad (Heteranthera limosa); test: Test B flooded paddy test, plant response rating; conditions: Heteranthera limosa, 312 h; 250 g ai/ha; Flood; scale of 0 to 100 where 0 is no effect and 100 is complete control; 13 to 15 days
Method in brief: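 Test compounds are applied straight into paddy water held 3 cm above the soil surface, with that flood maintained for the whole test. After 13 to 15 days in the greenhouse, each species is scored visually relative to controls.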

kochia (Kochia scoparia) [8] = test: Test C postemergence, plant response rating; conditions: Bassia scoparia, post-emergence
Method in brief: (§2)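 Visual injury score, 0 = no effect, 100 = complete control, assigned against untreated controls after 13 to 15 d in the greenhouse. Compounds were applied in a surfactant-containing non-phytotoxic solvent mix, preemergence to seeded loam/sand or silt loam soil, or postemergence to 1- to 4-leaf plants (2 to 18 cm).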

corn (Zea mays) = test: Test C postemergence, plant response rating; conditions: Zea mays, post-emergence
Method in brief: as §2

[9] = test system: nutsedge, yellow (yellow nutsedge, Cyperus esculentus); test: Test C postemergence, plant response rating; conditions: Cyperus, post-emergence
Method in brief: as §2

[10] = test system: oat, wild (wild oat Avena fatua); test: Test C postemergence, plant response rating; conditions: Avena fatua, post-emergence
Method in brief: as §2

[11] = test system: barnyardgrass (Echinochloa crus-galli); test: Test C postemergence, plant response rating; conditions: Echinochloa crus-galli, post-emergence
Method in brief: as §2

[12] = test system: morningglory (Ipomoea coccinea); test: Test C postemergence, plant response rating; conditions: Ipomoea, post-emergence
Method in brief: as §2

[13] = test system: lambsquarters (Chenopodium album); test: Test C postemergence, plant response rating; conditions: Chenopodium album, post-emergence
Method in brief: as §2

[14] = test system: crabgrass, large (large crabgrass, Digitaria sanguinalis); test: Test C postemergence, plant response rating; conditions: Digitaria sanguinalis, post-emergence
Method in brief: as §2

[15] = test system: ragweed (common ragweed, Ambrosia elatior); test: Test C postemergence, plant response rating; conditions: Ambrosia artemisiifolia, post-emergence
Method in brief: as §2

[16] = test system: velvetleaf (Abutilon theophrasti); test: Test C postemergence, plant response rating; conditions: Abutilon theophrasti, post-emergence
Method in brief: as §2

[17] = 62 g ai/ha, scale 0 to 100 (0 no effect, 100 complete control)
[18] = 125 g ai/ha, scale 0 to 100 (0 no effect, 100 complete control)

C=CCCOC(=O)c1c(Br)cccc1Oc1ncc(Cl)cn1 [Compound 21, 3-buten-1-yl 2-bromo-6-[(5-chloro-2-pyrimidinyl)oxy]benzoate]
pest or weed control at 125 g/ha (kochia (Kochia scoparia) [1]; 125 g ai/ha): 40% | pest or weed control at 500 g/ha (kochia (Kochia scoparia) [1]; 500 g ai/ha): 100% | pest or weed control at 125 g/ha ([2]; 125 g ai/ha): 100% | pest or weed control at 500 g/ha ([2]; 500 g ai/ha): 100% | pest or weed control at 125 g/ha ([3]; 125 g ai/ha): 100% | pest or weed control at 500 g/ha ([3]; 500 g ai/ha): 100% | pest or weed control at 125 g/ha ([4]; 125 g ai/ha): 30% | pest or weed control at 500 g/ha ([4]; 500 g ai/ha): 90% | pest or weed control at 125 g/ha ([5]; 125 g ai/ha): 100% | pest or weed control at 500 g/ha ([5]; 500 g ai/ha): 100% | pest or weed control at 125 g/ha ([6]; 125 g ai/ha): 0% | pest or weed control at 500 g/ha ([6]; 500 g ai/ha): 0% | pest or weed control at 250 g/ha [7]: 70% | pest or weed control at 16 g/ha (kochia (Kochia scoparia) [8]; 16 g ai/ha, scale 0 to 100): 60% | pest or weed control at 31 g/ha (kochia (Kochia scoparia) [8]; 31 g ai/ha, scale 0 to 100): 50% | pest or weed control at 62 g/ha (kochia (Kochia scoparia) [8]; [17]): 90% | pest or weed control at 125 g/ha (kochia (Kochia scoparia) [8]; [18]): 90% | Corn plant response rating (crop injury, 0 = no effect, 100 = complete kill) at 16 g/ha (corn (Zea mays); 16 g ai/ha, scale 0 to 100): 5% | Corn plant response rating (crop injury, 0 = no effect, 100 = complete kill) at 31 g/ha (corn (Zea mays); 31 g ai/ha, scale 0 to 100): 5% | plant injury at 62 g/ha (corn (Zea mays); [17]): 15% | plant injury at 125 g/ha (corn (Zea mays); [18]): 20% | pest or weed control at 16 g/ha ([9]; 16 g ai/ha, scale 0 to 100): 0% | pest or weed control at 31 g/ha ([9]; 31 g ai/ha, scale 0 to 100): 0% | pest or weed control at 62 g/ha [9, 17]: 5% | pest or weed control at 125 g/ha [9, 18]: 10% | pest or weed control at 16 g/ha ([10]; 16 g ai/ha, scale 0 to 100): 0% | pest or weed control at 31 g/ha ([10]; 31 g ai/ha, scale 0 to 100): 0% | pest or weed control at 62 g/ha [10, 17]: 5% | pest or weed control at 125 g/ha [10, 18]: 5% | pest or weed control at 16 g/ha ([11]; 16 g ai/ha, scale 0 to 100): 10% | pest or weed control at 31 g/ha ([11]; 31 g ai/ha, scale 0 to 100): 10% | pest or weed control at 62 g/ha [11, 17]: 20% | pest or weed control at 125 g/ha [11, 18]: 20% | pest or weed control at 16 g/ha ([12]; 16 g ai/ha, scale 0 to 100): 10% | pest or weed control at 31 g/ha ([12]; 31 g ai/ha, scale 0 to 100): 25% | pest or weed control at 62 g/ha [12, 17]: 40% | pest or weed control at 125 g/ha [12, 18]: 70% | pest or weed control at 16 g/ha ([13]; 16 g ai/ha, scale 0 to 100): 65% | pest or weed control at 31 g/ha ([13]; 31 g ai/ha, scale 0 to 100): 60% | pest or weed control at 62 g/ha [13, 17]: 65% | pest or weed control at 125 g/ha [13, 18]: 85% | pest or weed control at 16 g/ha ([14]; 16 g ai/ha, scale 0 to 100): 10% | pest or weed control at 31 g/ha ([14]; 31 g ai/ha, scale 0 to 100): 20% | pest or weed control at 62 g/ha [14, 17]: 25% | pest or weed control at 125 g/ha [14, 18]: 35% | pest or weed control at 16 g/ha ([15]; 16 g ai/ha, scale 0 to 100): 10% | pest or weed control at 31 g/ha ([15]; 31 g ai/ha, scale 0 to 100): 10% | pest or weed control at 62 g/ha [15, 17]: 45% | pest or weed control at 125 g/ha [15, 18]: 55% | pest or weed control at 16 g/ha ([16]; 16 g ai/ha, scale 0 to 100): 40% | pest or weed control at 31 g/ha ([16]; 31 g ai/ha, scale 0 to 100): 60% | pest or weed control at 62 g/ha ([16]; 62 g ai/ha, scale 0 to 100 (0 no effect, 100 complete control), read-out: Velvetleaf plant response rating): 60% | pest or weed control at 125 g/ha [16, 18]: 70%
